Data as given in patent US10570122B2, “Compounds with anti-tumoral activity” (AB Science, priority 2015, dated 2020).

What was measured:
MDAMB231 = assay: CellTiter-Blue cell-based survival/proliferation assay, MDAMB231; settings: Homo sapiens, MDA-MB-231; MDAMB231 breast tumor cell line, 48 h
Protocol: (§1) Cell-Based Proliferation Screening of Compounds
(§2) CellTiter-Blue cell-based survival/proliferation assay (Promega G8080) was performed on tumor cell lines. A total of 1·10^4 cells/well/50 μl were seeded in a 96-wells plate. Treatment was initiated by addition of a 2× drug solution of 1/10 serial dilutions ranging from 0 to 10 μM. Cells were grown for 48 h at 37° C. and then incubated with 10 μl/well of Promega CellTiter-Bleue reagent for 4 h at 37° C. The amount of resorufin dye formed was quantified by its fluorescence emission at 590 nm using a scanning multiwell spectrophotometer (OPTIMA, BMG labtech, France). A blank well without cells was used as a background control for the spectrophotometer.

[1] = tested on: panel of about 34 human tumor cell lines; assay: Cell-based proliferation screening on panel of tumor cell lines; settings: solid tumor cell line, cell line unknown, 48 h, read-out: IC50, solid tumor cell line of column 6 (last section of Table 3)
Protocol: Compounds of formula (I) were tested against a panel of about 34 human tumor cell lines representing 17 cancer type, namely leukemia (represented by 1 cell line), lymphoma (4 cell lines), myeloma (1 cell line), colorectal (2 cell lines), head and neck (3 cell lines), lung (3 cell lines), melanoma (2 cell lines), pancreas (2 cell lines), prostate (2 cell lines), ovary (2 cell lines) breast (2 cell lines), kidney (2 cell lines), stomach (2 cell lines), liver (2 cell lines), glioblastoma (2 cell lines), osteosarcoma (1 cell line), Ewing Sarcoma (1 cell line).
as §1, §2

H1299 = assay: CellTiter-Blue cell-based survival/proliferation assay, H1299; settings: Homo sapiens, NCI-H1299; H1299 lung tumor cell line, 48 h
Protocol: as §1, §2

DLD1 = assay: CellTiter-Blue cell-based survival/proliferation assay, DLD1; settings: Homo sapiens, DLD-1; DLD_1 colorectal tumor cell line, 48 h
Protocol: as §1, §2

A549 = assay: CellTiter-Blue cell-based survival/proliferation assay, A549; settings: Homo sapiens; A549 lung tumor cell line, 48 h
Protocol: as §1, §2

HEPG2 = assay: CellTiter-Blue cell-based survival/proliferation assay, HEPG2; settings: Homo sapiens; HEPG2 liver tumor cell line, 48 h
Protocol: as §1, §2

MESSA = assay: CellTiter-Blue cell-based survival/proliferation assay, MESSA; settings: Homo sapiens, MES-SA; MESSA ovary tumor cell line, 48 h
Protocol: as §1, §2

OPM2 = assay: CellTiter-Blue cell-based survival/proliferation assay, OPM2; settings: Homo sapiens, OPM-2, Myeloma cell line OPM2, 48 h, read-out: Anti-tumoral activity (measured IC50) OPM2
Protocol: as §1, §2

BT20 = assay: CellTiter-Blue cell-based survival/proliferation assay, BT20; settings: Homo sapiens, BT-20; BT20 breast tumor cell line, 48 h
Protocol: as §1, §2

SW579 = assay: CellTiter-Blue cell-based survival/proliferation assay, SW579; settings: Homo sapiens; SW579 head & neck tumor cell line, 48 h
Protocol: as §1, §2

PC3 = assay: CellTiter-Blue cell-based survival/proliferation assay, PC3; settings: Homo sapiens, PC-3; PC3 prostate tumor cell line, 48 h
Protocol: as §1, §2

A498 = assay: CellTiter-Blue cell-based survival/proliferation assay, A498; settings: Homo sapiens; A498 kidney tumor cell line, 48 h
Protocol: as §1, §2

ACHN = assay: CellTiter-Blue cell-based survival/proliferation assay, ACHN; settings: Homo sapiens; ACHN kidney tumor cell line, 48 h
Protocol: as §1, §2

HL60 = assay: CellTiter-Blue cell-based survival/proliferation assay, HL60; settings: Homo sapiens, HL-60, Leukemia cell line HL60, 48 h, read-out: Anti-tumoral activity (measured IC50) HL60
Protocol: as §1, §2

BXPC3 = assay: CellTiter-Blue cell-based survival/proliferation assay, BXPC3; settings: Homo sapiens, BXPC-3; BXPC3 pancreas tumor cell line, 48 h
Protocol: as §1, §2

CALU6 = assay: CellTiter-Blue cell-based survival/proliferation assay, CALU6; settings: Homo sapiens, Calu-6; CALU6 lung tumor cell line, 48 h
Protocol: as §1, §2

AGS = assay: CellTiter-Blue cell-based survival/proliferation assay, AGS; settings: Homo sapiens; AGS stomach tumor cell line, 48 h
Protocol: as §1, §2

PANC1 = assay: CellTiter-Blue cell-based survival/proliferation assay, PANC1; settings: Homo sapiens, PANC-1; PANC_1 pancreas tumor cell line, 48 h
Protocol: as §1, §2

HCT116 = assay: CellTiter-Blue cell-based survival/proliferation assay, HCT116; settings: Homo sapiens, HCT-116; HCT116 colorectal tumor cell line, 48 h
Protocol: as §1, §2

CLS354 = assay: CellTiter-Blue cell-based survival/proliferation assay, CLS354; settings: Homo sapiens, CLS-354; CLS354_4 head & neck tumor cell line, 48 h
Protocol: as §1, §2

DU145 = assay: CellTiter-Blue cell-based survival/proliferation assay, DU145; settings: Homo sapiens, DU-145; DU145 prostate tumor cell line, 48 h
Protocol: as §1, §2

HGC27 = assay: CellTiter-Blue cell-based survival/proliferation assay, HGC27; settings: Homo sapiens, HGC-27; HGC27 stomach tumor cell line, 48 h
Protocol: as §1, §2

TOV112D = assay: CellTiter-Blue cell-based survival/proliferation assay, TOV112D; settings: Homo sapiens; TOV112D ovary tumor cell line, 48 h
Protocol: as §1, §2

HEP2 = assay: CellTiter-Blue cell-based survival/proliferation assay, HEP2; settings: Homo sapiens, HEp-2; HEP2 head & neck tumor cell line, 48 h
Protocol: as §1, §2

PLCPRF5 = assay: CellTiter-Blue cell-based survival/proliferation assay, PLCPRF5; settings: Homo sapiens, PLC-PRF-5; PLC_PRF5 liver tumor cell line, 48 h
Protocol: as §1, §2

Row | IC50 [1] | Structure (SMILES) | IC50 (MDAMB231) | IC50 (H1299) | IC50 (DLD1) | IC50 (A549) | IC50 (HEPG2) | IC50 (MESSA) | IC50 (OPM2) | IC50 (BT20) | IC50 (SW579) | IC50 (PC3) | IC50 (A498) | IC50 (ACHN) | IC50 (HL60) | IC50 (BXPC3) | IC50 (CALU6) | IC50 (AGS) | IC50 (PANC1) | IC50 (HCT116) | IC50 (CLS354) | further results
1 | 100 to 500 nM | CCOCc1ccc(C)c(Nc2ncc(-c3ccc(N4C(=O)NC[C@H]4C)nc3)o2)c1 [Example 058, (R)-1-(5-(2-((5-(ethoxymethyl)-2-methylphenyl)amino)oxazol-5-yl)pyridin-2-yl)-5-methylimidazolidin-2-one] | > 1000 nM | > 1000 nM | > 1000 nM | > 1000 nM | > 1000 nM | > 1000 nM | ≤ 100 nM | > 1000 nM | > 1000 nM | ≤ 100 nM | > 1000 nM | > 1000 nM | ≤ 100 nM | > 1000 nM | > 1000 nM | > 1000 nM | > 1000 nM | > 1000 nM | ≤ 100 nM | IC50 (DU145): > 1000 nM; IC50 (HGC27): > 1000 nM; IC50 (TOV112D): ≤ 100 nM; IC50 (HEP2): 100 to 500 nM; IC50 (PLCPRF5): > 1000 nM
2 | ≤ 100 nM | CCOCc1cc(Nc2ncc(-c3ccc(N4CCNC4=O)cc3)o2)cc(OCCO)c1 [Example 059, 1-(4-(2-((3-(ethoxymethyl)-5-(2-hydroxyethoxy)phenyl)amino)oxazol-5-yl)phenyl)imidazolidin-2-one] | > 1000 nM | > 1000 nM | > 1000 nM | > 1000 nM | > 1000 nM | > 1000 nM | ≤ 100 nM | > 1000 nM | ≤ 100 nM | ≤ 100 nM | > 1000 nM | > 1000 nM | ≤ 100 nM | 500 to 1000 nM | > 1000 nM | > 1000 nM | > 1000 nM | ≤ 100 nM | ≤ 100 nM | IC50 (DU145): > 1000 nM; IC50 (HGC27): > 1000 nM; IC50 (TOV112D): ≤ 100 nM; IC50 (HEP2): ≤ 100 nM; IC50 (PLCPRF5): > 1000 nM
3 | > 1000 nM | CCOCc1ccc(C)c(Nc2ncc(-c3ccc(-c4cn[nH]c4)cc3)o2)c1 [Example 060, 5-(4-(1H-pyrazol-4-yl)phenyl)-N-(5-(ethoxymethyl)-2-methylphenyl)oxazol-2-amine] | > 1000 nM | > 1000 nM | > 1000 nM | > 1000 nM | > 1000 nM | > 1000 nM | 500 to 1000 nM | > 1000 nM | > 1000 nM | > 1000 nM | > 1000 nM | > 1000 nM | 500 to 1000 nM | > 1000 nM | > 1000 nM | > 1000 nM | > 1000 nM | > 1000 nM | > 1000 nM | IC50 (DU145): > 1000 nM; IC50 (HGC27): > 1000 nM; IC50 (TOV112D): > 1000 nM; IC50 (HEP2): > 1000 nM; IC50 (PLCPRF5): > 1000 nM
4 | > 1000 nM | CCOCc1ccc(C)c(Nc2ncc(-c3ccc(-c4ccnn4C)cc3)o2)c1 [Example 061, N-(5-(ethoxymethyl)-2-methylphenyl)-5-(4-(1-methyl-1H-pyrazol-5-yl)phenyl)oxazol-2-amine] | > 1000 nM | > 1000 nM | > 1000 nM | > 1000 nM | > 1000 nM | > 1000 nM | > 1000 nM | > 1000 nM | > 1000 nM | > 1000 nM | > 1000 nM | > 1000 nM | > 1000 nM | > 1000 nM | > 1000 nM | > 1000 nM | > 1000 nM | > 1000 nM | > 1000 nM | IC50 (DU145): > 1000 nM; IC50 (HGC27): > 1000 nM; IC50 (TOV112D): > 1000 nM; IC50 (HEP2): > 1000 nM; IC50 (PLCPRF5): > 1000 nM
